Data published in US6156291A, “Chemical and pharmacological standardization of herbal extracts” (CV Technologies Inc., priority 1998, dated 2000).
Entries after “also recorded” stand apart in the source; their conditions may differ.

Columns and labels:
rat brain synaptosomes [1] = details: literature (Benishin, 1992); Rb1 positive control, HC3 negative control; cited from earlier work
rat brain synaptosomes [2] = assay: choline uptake in rat brain synaptosomes; type: biochemical; details: for effect on choline uptake (FIG. 1): various doses, rat brain synaptosomes
Excerpt: (1) Effects of CVT-E001 on choline uptake in isolated brain synaptosomes in rats
(§1) Choline uptake has been examined in synaptosome preparations from whole brain and hippocampus in the presence of Rb1, CVT-E001 and HC3.
The magnitude of these effects are consistent with the previous studies.

[3] = test system: dorsal and sympathetic ganglia; details: literature (Saito 1985), cited from earlier work; for neurite outgrowth by NGF: in presence of NGF; for neurite outgrowth without NGF: on its own
[4] = pure ginsenosides; literature; cited from earlier work
[5] = test system: synaptosomes prepared from rat hippocampus; assay: choline uptake into synaptosomes prepared from rat hippocampus; type: biochemical; details: Table 2
Excerpt: as §1
This observation is not unexpected as many pharmacological compounds have an optimal dose range and more or less of the material results in less biological activity.

[6] = Morris Water Maze and Scopolamine induced Amnesia Model; type: in vivo, rat
Excerpt: As CVT-E001 is a mixture of ginsenosides, it may not have the same properties as pure saponins. […] Rats are required to learn the location of a hidden platform in a murky swimming pool. […] The effects of CVT-E001 on memory can also be examined in scopolamine induced amnesia (scopolamine interferes with the cholinergic neurotransmitter system and impedes learning and memory). If CVT-E001 enhances learning and/or memory it should facilitate task acquisition and/or protect against memory loss in scopolamine treated animals.
A study was designed of spatial learning and memory using the Morris water maze and scopolamine induced amnesia with CVT-E001 as the test compound. The specific aim of the experiment was to test if CVT-E001 affected the acquisition and/or retention of a new task in the presence of scopolamine induced amnesia. Rats (S/D strain males, 200-250 g, about 8 weeks old) are initially divided into two groups and fed either water (0.5 ml) or CVT-E001 (200 mg/kg/day in 0.5 ml water by gavage) for the duration of the experiment. Eight days after the initiation of CVT-E001 administration rats are given the task of learning the position of a platform hidden in a pool of murky water. The rats are placed in the pool 4 times per day for 5 days and the time required to find the platform in recorded (maximum duration 5 minutes). This time becomes shorter as the rats learn the task. On day 14 the two groups of rats are further subdivided into four groups. Six rats from each of the initial two groups receive saline injections while the remaining six rats from each initial group receive scopolamine (2 mg/kg) prior to being required to find the platform which has been moved to a new location (3 trials, maximum duration 3 minutes within 30 minutes of receiving either saline or scopolamine injection. On day 15 the procedure for day 14 was repeated with the platform remaining located in the position designated on day 14. On day 16, the procedure from day 14 was again followed except that the platform was moved to a location on the opposite side of the pool. On day 17 the procedure followed on day 14 was repeated except that the platform remains in the location designated on day 16. In each instance the time to locate the platform is recorded.
This experiment was repeated twice using 24 rats each time. The data from the two experiments was combined. One CVT-E001 treated rat died from accidental administration of CVT-E001 into the lungs.
Statistical analysis was by analysis of variance on log transformed data. As a posteriori test of significance were performed using the Newman-Keulstest.

[7] = test system: PC12 (pheochromocytoma) cell lines; details: literature; cited from earlier work
[8] = test system: PC12 (pheochromocytoma) cell lines; assay: neurite outgrowth in PC12 cells; type: cell-based; details: seven days after treatment; FIGS. 26, 27
Method: PC12 cells were seeded and maintained in 100 cm^2 tissue culture dishes at 37° C. in RRMI1640 containing 1% antibiotics, 10% heated inactivated horse serum and 5% fetal bovine serum in a water saturated atmosphere of 95% air and 5% CO2. NIE-115 cells were maintained in a flask in 90% DMEM (Dulbecco's Modified Eagle Medium, Gibco, Grand Island, N.Y., USA) with 10% FBS and antibiotic PNS (penicillin, neomycin streptomycin). The culture plates were maintained in a temperature-controlled (37° C.) humidified atmosphere consisting of 95% room air and 5% CO2. The cells were mechanically dislodged for the experiment by forceful aspiration of the medium through a Pasteur pipette and plated in 35 mm collagen-coated tissue culture dishes containing a total of 2.0 ml of complete medium at a density of 1×10^4 cells/ml. […]
The cellular response to Nerve Growth Factor (NGF) and samples were determined by counting the number of cells contained processes in PC12 cells. […]
The cells and neurites were counted as follows.
Cells with circular or global shapes and no neurite outgrowth were scored as 0 (S0).
Cells with more than two small neurites on the cell bodies were scored as S2.
Cells with one or two neurites with the length of at least two times diameter as their body were scored as S3.
Cells with more than two long neurites were scored as S4.
The neurite index was calculated as below: […]

## C[N+]1(C)CCOC(O)(c2ccc(-c3ccc(C4(O)C[N+](C)(C)CCO4)cc3)cc2)C1 (stereo not shown) [HC3]
Rat brain synaptosomes [1]
  choline uptake, previously demonstrated: inhibit choline uptake
Rat brain synaptosomes [2]
  effect on choline uptake (FIG. 1): inhibits choline uptake

## CC(C)=CCC[C@](C)(O[C@@H]1O[C@H](CO[C@@H]2O[C@H](CO)[C@@H](O)[C@H](O)[C@H]2O)[C@@H](O)[C@H](O)[C@H]1O)[C@H]1CC[C@]2(C)[C@@H]1[C@H](O)C[C@@H]1[C@@]3(C)CC[C@H](O[C@@H]4O[C@H](CO)[C@@H](O)[C@H](O)[C@H]4O[C@@H]4O[C@H](CO)[C@@H](O)[C@H](O)[C@H]4O)C(C)(C)[C@@H]3CC[C@]12C [Rb1, ginsenoside Rb1]
Rat brain synaptosomes [1]
  choline uptake, previously demonstrated: increase choline uptake into synaptosomes
[3]
  neurite outgrowth by NGF: enhance neurite outgrowth of dorsal and sympathetic ganglia
  neurite outgrowth without NGF: no effect on its own
[4]
  learning and memory: enhance learning and memory; also recorded: improve memory in experimental animals
[5]
  choline uptake (in words): increase choline uptake
Rat brain synaptosomes [2]; Table 3
  stimulation of choline uptake (in words): significantly stimulate choline uptake
Rat brain synaptosomes [2]; Table 3, CVT-E001 contains 8.1% Rb1, 32.4% total ginsenosides, n = 4
  potency ranking, choline uptake: CVTE001 > TS > Rb1
Rat brain synaptosomes [2]
  effect on choline uptake (FIG. 1): promotes choline uptake

## CC(C)=CCC[C@](C)(O[C@@H]1O[C@H](CO)[C@@H](O)[C@H](O)[C@H]1O)[C@H]1CC[C@]2(C)[C@@H]1[C@H](O)C[C@@H]1[C@@]3(C)CC[C@H](O[C@@H]4O[C@H](CO)[C@@H](O)[C@H](O)[C@H]4O[C@@H]4O[C@H](CO)[C@@H](O)[C@H](O)[C@H]4O)C(C)(C)[C@@H]3CC[C@]12C [Rd, ginsenoside Rd]
[3]
  neurite outgrowth by NGF: enhance neurite outgrowth of dorsal and sympathetic ganglia
  neurite outgrowth without NGF: no effect on its own

## CC(C)=CCC[C@](C)(O[C@@H]1O[C@H](CO)[C@@H](O)[C@H](O)[C@H]1O)[C@H]1CC[C@]2(C)[C@@H]1[C@H](O)C[C@@H]1[C@@]3(C)CC[C@H](O)C(C)(C)[C@@H]3[C@@H](O[C@@H]3O[C@H](CO)[C@@H](O)[C@H](O)[C@H]3O)C[C@]12C [Rg1, ginsenoside Rg1]
[4]
  learning and memory: enhance learning and memory; also recorded: improve memory in experimental animals

## CN1[C@@H]2C[C@@H](OC(=O)[C@H](CO)c3ccccc3)C[C@H]1[C@@H]1O[C@@H]12 [scopolamine]
[6]; day 15, scopolamine 2 mg/kg, CVT-E001 200 mg/kg/day, FIG. 19
  latency remembering platform location, combined trials: significantly greater latency than all other groups
[6]; day 16, scopolamine 2 mg/kg, FIG. 20
  latency to second new platform location, trial 3: demonstrated a scopolamine induced learning deficit
[6]; day 17, scopolamine 2 mg/kg with or without CVT-E001 200 mg/kg/day, FIG. 22
  latency remembering second platform location, first trial: significantly impaired
[6]; day 17, scopolamine 2 mg/kg with or without CVT-E001 200 mg/kg/day, FIG. 23
  latency remembering second platform location, combined trials: demonstrate a learning deficit

## NGF: Nerve Growth Factor, prototype neurotrophin
[7]
  PC12 response to NGF treatment: neurite outgrowth and electrical excitability
[8]
  neurite outgrowth in PC12: increased neurite outgrowth in PC12 in a dose-dependent manner
